Measurements as given in patent US20240208992A1, “MACROCYCLES AS CFTR MODULATORS” (Idorsia Pharmaceuticals Ltd, priority 2021, published 2024).

Biological target: human F508del-CFTR (Homo sapiens, UniProt P13569, DEL508-508)
Assay: F508del-CFTR cell surface expression (corrector activity), DiscoveRx ß-galactosidase complementation chemiluminescence assay in recombinant U2OS cell line;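 note: U2OS cells co-expressing ProLink-tagged F508del-CFTR and a membrane-anchored enzyme acceptor, where more surface CFTR restores β-galactosidase activity measured by chemiluminescence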
Details: for EC50: EC50, F508del-CFTR cell surface expression, geomean values; for Emax: U2OS, arithmetic mean values
[1] = U2OS cell line, 16h compound incubation
[2] = in relation to the Emax of the corrector lumacaftor (=100%), U2OS cell line, 16h compound incubation

Chain of human F508del-CFTR (P13569 with tags, fused parts or gaps DEL508-508): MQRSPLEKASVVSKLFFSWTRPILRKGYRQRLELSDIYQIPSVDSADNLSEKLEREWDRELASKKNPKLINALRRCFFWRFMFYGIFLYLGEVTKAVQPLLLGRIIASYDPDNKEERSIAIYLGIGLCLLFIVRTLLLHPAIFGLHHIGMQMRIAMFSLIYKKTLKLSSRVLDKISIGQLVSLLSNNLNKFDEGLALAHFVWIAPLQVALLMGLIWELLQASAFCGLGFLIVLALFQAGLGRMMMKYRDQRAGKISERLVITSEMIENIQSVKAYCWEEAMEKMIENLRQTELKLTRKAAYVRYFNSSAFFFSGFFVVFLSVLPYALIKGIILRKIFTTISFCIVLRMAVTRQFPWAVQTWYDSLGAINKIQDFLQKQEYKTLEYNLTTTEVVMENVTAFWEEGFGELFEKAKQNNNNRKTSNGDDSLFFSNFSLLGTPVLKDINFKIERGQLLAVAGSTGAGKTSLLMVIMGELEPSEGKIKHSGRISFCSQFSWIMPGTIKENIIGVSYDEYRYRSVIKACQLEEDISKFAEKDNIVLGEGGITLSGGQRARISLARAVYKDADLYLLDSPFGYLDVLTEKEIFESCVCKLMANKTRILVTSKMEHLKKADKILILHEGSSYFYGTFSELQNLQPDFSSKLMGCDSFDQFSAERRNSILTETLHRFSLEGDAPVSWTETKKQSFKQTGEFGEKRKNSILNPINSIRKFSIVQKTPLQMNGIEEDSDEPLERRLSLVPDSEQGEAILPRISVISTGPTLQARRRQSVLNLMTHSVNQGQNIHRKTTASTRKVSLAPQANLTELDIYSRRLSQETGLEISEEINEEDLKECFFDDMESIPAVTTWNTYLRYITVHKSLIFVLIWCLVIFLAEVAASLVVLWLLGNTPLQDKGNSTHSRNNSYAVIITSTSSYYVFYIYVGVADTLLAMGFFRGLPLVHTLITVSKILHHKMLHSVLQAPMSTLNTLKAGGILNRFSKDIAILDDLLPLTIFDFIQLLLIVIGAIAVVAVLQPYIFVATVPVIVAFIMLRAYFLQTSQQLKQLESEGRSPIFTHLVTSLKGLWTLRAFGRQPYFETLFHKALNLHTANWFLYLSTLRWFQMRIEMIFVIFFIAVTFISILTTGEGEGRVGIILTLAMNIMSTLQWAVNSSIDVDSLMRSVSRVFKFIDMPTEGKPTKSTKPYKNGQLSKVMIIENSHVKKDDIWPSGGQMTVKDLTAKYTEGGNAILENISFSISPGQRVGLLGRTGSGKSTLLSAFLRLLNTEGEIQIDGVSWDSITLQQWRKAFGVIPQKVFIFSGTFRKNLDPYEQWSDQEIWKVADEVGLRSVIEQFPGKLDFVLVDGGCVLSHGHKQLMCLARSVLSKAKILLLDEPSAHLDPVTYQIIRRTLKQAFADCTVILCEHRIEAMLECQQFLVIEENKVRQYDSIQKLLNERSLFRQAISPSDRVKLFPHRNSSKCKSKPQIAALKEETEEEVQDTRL

EC50 (U2OS cells, 16h compound incubation) [nM]	Emax (in relation to Emax of corrector lumacaftor (=100%)) [%]	Compound	EC50 [1] [nM]	Emax [2] [%]
–	–	CC(C)C[C@H]1C(=O)N(CCCOCc2ccccc2)CC(=O)N[C@H](Cc2ccccc2)COc2cc3c(cc2C(=O)N[C@H](C(=O)NCCc2ccc4c(c2)OCO4)CC(=O)N1C)OCO3 (racemic) [Example 6, (7R,13S,17RS)-N-(2-(benzo[d][1,3]dioxol-5-yl)ethyl)-7-benzyl-11-(3-(benzyloxy)propyl)-13-isobutyl-14-methyl-9,12,15,19-tetraoxo-6,7,8,9,10,11,12,13,14,15,16,17,18,19-tetradecahydro-[1,3]dioxolo[4′,5′:4,5]benzo[1,2-p][1]oxa[4,7,10,14]tetraazacycloheptadecine-17-carboxamide]	420	112
27	306	CC(C)C[C@H]1C(=O)N(C)[C@H](CC2CCCCC2)C(=O)N[C@H](Cc2ccccc2)COc2cnc3ccc(F)cc3c2C(=O)N[C@H](C(=O)NCCc2cc(C3CC3)no2)CC(=O)N1C [Example 697, (3S,7S,10R,13R)-13-benzyl-10-(cyclohexylmethyl)-N-(2-(3-cyclopropylisoxazol-5-yl)ethyl)-20-fluoro-7-isobutyl-6,9-dimethyl-1,5,8,11-tetraoxo-1,2,3,4,5,6,7,8,9,10,11,12,13,14-tetradecahydro-[1]oxa[4,7,10,14]tetraazacycloheptadecino[17,16-c]quinoline-3-carboxamide]	–	–
–	–	CC(C)C[C@H]1C(=O)N(C)CC(=O)N[C@H](Cc2ccccc2)COc2ccc3ccccc3c2C(=O)N[C@H](C(=O)NCCc2ccc3c(c2)OCO3)CC(=O)N1C [Example 269, (3S,7S,13R)-N-(2-(benzo[d][1,3]dioxol-5-yl)ethyl)-13-benzyl-7-isobutyl-6,9-dimethyl-1,5,8,11-tetraoxo-1,2,3,4,5,6,7,8,9,10,11,12,13,14-tetradecahydronaphtho[1,2-p][1]oxa[4,7,10,14]tetraazacycloheptadecine-3-carboxamide]	350	251
–	–	COc1cccc(CCNC(=O)[C@@H]2CC(=O)N(C)[C@@H](CC(C)C)C(=O)N(CCC3CCCCC3)CC(=O)N[C@H](Cc3ccccc3)COc3ccc(Cl)cc3C(=O)N2)c1 [Example 254, (3R,9S,13S)-3-benzyl-17-chloro-7-(2-cyclohexylethyl)-9-isobutyl-N-(3-methoxyphenethyl)-10-methyl-5,8,11,15-tetraoxo-2,3,4,5,6,7,8,9,10,11,12,13,14,15-tetradecahydrobenzo[p][1]oxa[4,7,10,14]tetraazacycloheptadecine-13-carboxamide]	102	152
–	–	CC(C)C[C@H]1C(=O)N(C)CC(=O)N[C@H](Cc2ccccc2)COc2cnc3c(F)cccc3c2C(=O)N[C@H](C(=O)NCCc2ccc3c(c2)OCO3)CC(=O)N1C [Example 349, (3S,7S,13R)-N-(2-(benzo[d][1,3]dioxol-5-yl)ethyl)-13-benzyl-18-fluoro-7-isobutyl-6,9-dimethyl-1,5,8,11-tetraoxo-1,2,3,4,5,6,7,8,9,10,11,12,13,14-tetradecahydro-[1]oxa[4,7,10,14]tetraazacycloheptadecino[17,16-c]quinoline-3-carboxamide]	597	258
–	–	CC(C)C[C@H]1C(=O)N2CCOC[C@@H]2C(=O)N[C@H](Cc2ccccc2)COc2cnc3ccccc3c2C(=O)N[C@H](C(=O)NCCc2ccc(-n3nccn3)cc2)CC(=O)N1C [Example 55, (9S,13S,19aR,22R)-N-(4-(2H-1,2,3-triazol-2-yl)phenethyl)-22-benzyl-13-isobutyl-12-methyl-7,11,14,20-tetraoxo-7,8,9,10,11,12,13,14,16,17,19,19a,20,21,22,23-hexadecahydro-[1,4]oxazino[3′,4′:6,7][1]oxa[4,7,10,14]tetraazacycloheptadecino[17,16-c]quinoline-9-carboxamide]	945	245
